Measurements as given in patent publication US20240216444A1, “DESIGNED BACTERIAL COMPOSITIONS” (Seres Therapeutics, Inc., priority 2015, published 2024).
Read-outs that look alike come from different tables or passages of the source.

Legend:
[1] = system: C. difficile carbon sources; test: Carbon source utilization, 87 carbon sources in three base media, OD600 and acid production (Example 3B); assay type: cell-based; parameters: key: “+” and “w” refer to “positive” and “weak” utilization of the carbon source, respectively; “+” and “w” refer to “positive” and “weak” utilization of the carbon source, respectively
Excerpt: Three C. difficile strains and 12 non-C. difficile bacterial strains were profiled using a panel of carbon sources. As used herein, unless otherwise indicated, carbon sources includes all sources tested as growth substrates in the experiments herein. The three C. difficile strains were Clostridium difficile ATCC 9689, Clostridium difficile ATCC 43593, and Clostridium difficile ATCC 43255, all of which are available from the American Type Culture Collection (ATCC).
Growth of the strains was tested on 87 different carbon sources in a 96-well plate format. The panel contained 34 carbon sources reported to be utilized by C. difficile in the literature (Hafiz and Oakley. 1976 J Med Microbiol 9:129-36; Wilson and Perini. 1988 Infection and Immunity 56:2610-14; Bergey and Holt. Bergey's Manual of Determinative Bacteriology. Baltimore: Williams & Wilkins, 1994; Sebaihia et al. 2006 Nature Genetics 38:779-786) including amino acids, mono-, di-, tri- and polysaccharides, glucoside and sugar alcohols. Carbon sources were added at 0.5% into three different base media (Base medium 1 SSNC composition: beef extract 1 g/L, yeast extract 2 g/L, bacto soytone 6 g/L, NaCl 4 g/L, KH2PO4 5.44 g/L, MgSO4 2 mM, CaCl2 1 mM, MnCl2 0.1 mM, cysteine hydrochloride 0.25 g/L, hemin 10 mg/L, menadione 1 mg/L, MOPS 6.3 g/L, pH 7; Base medium 2 SPOSCR composition: beef extract 1 g/L, yeast extract 2 g/L, bacto soytone 6 g/L, NaCl 4 g/L, KH2PO4 5.44 g/L, MgSO4 2 mM, CaCl2) 1 mM, MnCl2 0.1 mM, cysteine hydrochloride 0.25 g/L, hemin 10 mg/L, menadione 1 mg/L, MOPS 8.4 g/L, NaHCO3 0.4%, pH 7; Base medium 3 YCFA: casitone 10 g/L, yeast extract 2.5 g/L, cysteine hydrochloride 1 g/L, hemin 10 mg/L, ATCC vitamin solution 10 mL/L, ATCC trace element solution 10 mL/L, K2HPO4 0.45 g/L, KH2PO4 0.45 g/L, (NH4)2SO4 0.9 g/L, MgSO4×7H2O 90 mg/L, CaCl2) 90 mg/L, acetic acid 33 mM, propionic acid 9 mM, isobutyric acid 1 mM, isovaleric acid 1 mM, valeric acid 1 mM, pH 7).
Positive growth was scored by measuring optical density at 600 nm and comparing it to growth in base medium without an added carbon source. For two, base media acid production was also scored by measuring optical density at 558 nm of pH-indicator phenol red mixed with spent medium from each culture.

[2] = system: HSDH activity (7-, 3- or 12-hydroxyl groups) on cholic, chenodeoxycholic, deoxycholic and lithocholic acid; test: LC-MS screen for hydroxysteroid dehydrogenase (HSDH) activity; assay type: biochemical
[3] = system: 7α-dehydroxylation of cholic acid and chenodeoxycholic acid; test: LC-MS screen for 7α-dehydroxylation (7α-OH) activity; assay type: biochemical
[4] = system: bile salt hydrolase (BSH) activity on conjugated bile acids; test: LC-MS screen for bile salt hydrolase (BSH) activity; conditions: for BSH gCA: substrate gCA; for BSH gCDCA: substrate gCDCA; for BSH t-aMCA: substrate t-aMCA; for BSH t-bMCA: substrate t-bMCA; for BSH tCA: substrate tCA; for BSH tCDCA: substrate tCDCA
Experimental: To conduct the assay, briefly, bacteria were grown on permissive agar media plates for 24 to 48 hours to generate sufficient biomass to carry out assays. The bacterial lawns were resuspended in PBS to create a homogenous suspension that was then used for the BSH assay. To assay for BSH activity, bacterial suspensions were incubated with two separate mixtures of four distinct conjugated bile acids, each at concentration of 150 μg/ml, for 4 hours at 37° C. under anaerobic conditions. The reaction mixture was then extracted with an equal volume of acetonitrile, spun down to pellet bacteria and the supernatant filtered through a 0.2 μM filter to generate a sample for LC-MS analysis. Bile acids were determined using an Agilent 1260 HPLC coupled to a Bruker Compact qTOF MS. Samples were run on a bidentate C18 column using an acetonitrile:water buffer system to separate bile acids which were then ionized in negative mode and identified using a qTOF-MS. BSH activity was determined by the formation of deconjugated bile acid products that were verified by comparison to known standards and quantified, if necessary, using standard curves.

[5] = system: HDAC enzymes (HeLa nuclear extract); test: HDAC-Glo I/II assay with serial dilutions of SCFAs; assay type: biochemical; conditions: for HDAC inhibition activity at the highest tested concentration: 3.75 mM
Experimental: For this experiment, the HeLa nuclear extract provided in the kit was used as the source of HDAC enzymes. […] In this assay, deacetylation of the provided substrate by HDACs results in a luminescence signal that is detected with a suitable plate reader (Spectramax m5). HDAC inhibition decreases the luminescence signal compared to the no inhibitor control. The experiment was carried out according to the manufacturer's instructions as follows: 50 μL of HeLa nuclear extract diluted 1:3000 in assay buffer was mixed with 50 μL of inhibitor solution (serial dilutions of SCFAs in assay buffer) and incubated for 30 minutes. 100 μL of developer solution were added to each well, and luminescence was measured after 45 minutes of incubation at room temperature.

[6] = Indole spot test of supernatants on paper soaked with Indole Reagent; conditions: 4 μL spotted on paper soaked with Indole Reagent
[7] = LC-MS, substrate chenodeoxycholic acid

Blautia producta
utilization of carbon source Apple pectin ([1]; Apple pectin): +
utilization of carbon source Citrus pectin ([1]; Citrus pectin): +
utilization of carbon source NAG ([1]; NAG (N-acetylglucosamine)): +
utilization of carbon source alanine ([1]; alanine): +
utilization of carbon source asparagine ([1]; asparagine): +
utilization of carbon source cellobiose ([1]; cellobiose): +
utilization of carbon source cysteine ([1]; cysteine): w
utilization of carbon source dulcitol ([1]; dulcitol): +
utilization of carbon source esculin ([1]; esculin): +
utilization of carbon source formate ([1]; formate): +
utilization of carbon source fructose ([1]; fructose): +
utilization of carbon source glucose ([1]; glucose): +
utilization of carbon source glutamine ([1]; glutamine): w
utilization of carbon source glycochenodeoxycholate ([1]; glycochenodeoxycholate): w
utilization of carbon source mannitol ([1]; mannitol): +
utilization of carbon source mannose ([1]; mannose): +
utilization of carbon source melezitose ([1]; melezitose): +
utilization of carbon source oxalate ([1]; oxalate): w
utilization of carbon source polygalacturonate ([1]; polygalacturonate): +
utilization of carbon source rhamnose ([1]; rhamnose): +
utilization of carbon source ribose ([1]; ribose): +
utilization of carbon source salicin ([1]; salicin): +
utilization of carbon source serine ([1]; serine): +
utilization of carbon source sialic acid ([1]; sialic acid): +
utilization of carbon source sorbitol ([1]; sorbitol): +
utilization of carbon source sucrose ([1]; sucrose): +
utilization of carbon source taurochenodeoxycholate ([1]; taurochenodeoxycholate): w
utilization of carbon source threonine ([1]; threonine): w
utilization of carbon source trehalose ([1]; trehalose): +
utilization of carbon source xylitol ([1]; xylitol): +
utilization of carbon source xylose ([1]; xylose): +
HSDH 3a ([2]; LC-MS): −
HSDH 7a ([2]; LC-MS): −
HSDH 12a ([2]; LC-MS): −
7a Dehydrox CA ([3]; LC-MS, substrate CA): −
7a Dehydrox CDCA ([3]; LC-MS, substrate CDCA): −
BSH gCA [4]: −
BSH gCDCA [4]: −
BSH t-aMCA [4]: −
BSH t-bMCA [4]: −
BSH tCA [4]: −
BSH tCDCA [4]: −

CC(=O)O [acetate]
HDAC inhibition activity at the highest tested concentration [5]: minimal HDAC inhibition activity

Clostridium_glycolicum
BSH gCA [4]: + (‘+’ indicates greater than 50-fold increase in levels of product bile acid, suggesting strong activity)
BSH gCDCA [4]: + (‘+’ indicates greater than 50-fold increase in levels of product bile acid, suggesting strong activity)
BSH t-aMCA [4]: + (‘+’ indicates greater than 50-fold increase in levels of product bile acid, suggesting strong activity)
BSH t-bMCA [4]: + (‘+’ indicates greater than 50-fold increase in levels of product bile acid, suggesting strong activity)
BSH tCA [4]: + (‘+’ indicates greater than 50-fold increase in levels of product bile acid, suggesting strong activity)
BSH tCDCA [4]: + (‘+’ indicates greater than 50-fold increase in levels of product bile acid, suggesting strong activity)

O=C(O)CCCc1c[nH]c2ccccc12 [indole-3-butyric acid]
colour in indole spot test [6]: purple spots

Clostridium symbiosum
HSDH 3a ([2]; LC-MS, 3a-HSDH): +/− (‘+/−’ indicates ≤50-fold change in product bile acid levels, suggesting weak activity)
HSDH 7a ([2]; LC-MS, 7a-HSDH): + (‘+’ indicates greater than 50-fold increase in levels of product bile acid, suggesting strong activity)
HSDH 12a ([2]; LC-MS, 12a-HSDH): −
7a Dehydrox CDCA [3, 7]: −
7a Dehydrox CA ([3]; LC-MS, substrate cholic acid): −
BSH gCA [4]: +/− (‘+/−’ indicates ≤50-fold change in product bile acid levels, suggesting weak activity)
BSH gCDCA [4]: + (‘+’ indicates greater than 50-fold increase in levels of product bile acid, suggesting strong activity)
BSH t-aMCA [4]: −
BSH t-bMCA [4]: −
BSH tCA [4]: −
BSH tCDCA [4]: +/− (‘+/−’ indicates ≤50-fold change in product bile acid levels, suggesting weak activity)

Clostridium paraputrificum
BSH gCA [4]: + (‘+’ indicates greater than 50-fold increase in levels of product bile acid, suggesting strong activity)
BSH gCDCA [4]: + (‘+’ indicates greater than 50-fold increase in levels of product bile acid, suggesting strong activity)
BSH t-aMCA [4]: + (‘+’ indicates greater than 50-fold increase in levels of product bile acid, suggesting strong activity)
BSH t-bMCA [4]: + (‘+’ indicates greater than 50-fold increase in levels of product bile acid, suggesting strong activity)
BSH tCA [4]: + (‘+’ indicates greater than 50-fold increase in levels of product bile acid, suggesting strong activity)
BSH tCDCA [4]: + (‘+’ indicates greater than 50-fold increase in levels of product bile acid, suggesting strong activity)

NCCc1c[nH]c2ccccc12 [tryptamine]
colour in indole spot test [6]: purple spots

Clostridium sp_7_2_43FAA
HSDH 3a ([2]; LC-MS, 3a-HSDH): +/− (‘+/−’ indicates ≤50-fold change in product bile acid levels, suggesting weak activity)
HSDH 7a ([2]; LC-MS, 7a-HSDH): + (‘+’ indicates greater than 50-fold increase in levels of product bile acid, suggesting strong activity)
HSDH 12a ([2]; LC-MS, 12a-HSDH): −
7a Dehydrox CDCA [3, 7]: −
7a Dehydrox CA ([3]; LC-MS, substrate cholic acid): −

Clostridium_sordellii
HSDH 3a ([2]; LC-MS, 3a-HSDH): +/− (‘+/−’ indicates ≤50-fold change in product bile acid levels, suggesting weak activity)
HSDH 7a ([2]; LC-MS, 7a-HSDH): −
HSDH 12a ([2]; LC-MS, 12a-HSDH): −
7a Dehydrox CDCA [3, 7]: −
7a Dehydrox CA ([3]; LC-MS, substrate cholic acid): −
BSH gCA [4]: + (‘+’ indicates greater than 50-fold increase in levels of product bile acid, suggesting strong activity)
BSH gCDCA [4]: + (‘+’ indicates greater than 50-fold increase in levels of product bile acid, suggesting strong activity)
BSH t-aMCA [4]: + (‘+’ indicates greater than 50-fold increase in levels of product bile acid, suggesting strong activity)
BSH t-bMCA [4]: + (‘+’ indicates greater than 50-fold increase in levels of product bile acid, suggesting strong activity)
BSH tCA [4]: + (‘+’ indicates greater than 50-fold increase in levels of product bile acid, suggesting strong activity)
BSH tCDCA [4]: + (‘+’ indicates greater than 50-fold increase in levels of product bile acid, suggesting strong activity)

Clostridium butyricum
HSDH 3a [2]: −
HSDH 12a [2]: −
7a Dehydrox CA [3]: −
7a Dehydrox CDCA [3]: −

CC(O)C(=O)O (centres unmarked) [Lactate]
HDAC inhibition activity at the highest tested concentration [5]: minimal HDAC inhibition activity

O=C(O)CCc1c[nH]c2ccccc12 [indole-3-propionic acid]
colour in indole spot test [6]: purple spots

Blautia_producta
HSDH 3a ([2]; LC-MS, 3a-HSDH): −
HSDH 7a ([2]; LC-MS, 7a-HSDH): −
HSDH 12a ([2]; LC-MS, 12a-HSDH): −
7a Dehydrox CDCA [3, 7]: −
7a Dehydrox CA ([3]; LC-MS, substrate cholic acid): −

Cc1c[nH]c2ccccc12 [3-methyl-indole]
colour in indole spot test [6]: purple spots

c1ccc2[nH]ccc2c1 [Indole, indole]
colour in indole spot test [6]: light blue color

CCC(=O)O [propionate]
IC50 ([5]; HeLa nuclear extract, HDAC-Glo I/II, read-out: HDAC inhibition IC50): 2400 µM
